Test results as given in patent US5283321A (priority 1986, dated 1994).
Peptide text beside a SMILES is read from it.

How the values were obtained:
purified pertussis toxin [1] = test: Challenge of immunized mice with purified pertussis toxin, survival; type: in vivo, mice (NMRI); details: challenge 20 μg/mouse=5×LD50
purified pertussis toxin [2] = test: Immunization of mice with the synthetic peptide, ELISA of sera against native pertussis toxin; type: in vivo, mice (NMRI); details: sera two months after third dose
[3] = tested on: spleen cells from a NMRI mouse; test: LAF assay, lymphocyte or thymocyte proliferating activity (3H-thymidine incorporation); type: cell-based; details: 48 h + 16 h with 3H-thymidine
[4] = tested on: antibodies in rabbit sera; test: ELISA, reaction between the synthetic peptide (BSA-coupled coating antigen) and antibodies in rabbit sera; type: binding; details: goat anti-rabbit conjugate 1/500, plates read after 3 min, peptide coupled to BSA as coating antigen
antibodies in human sera = test: ELISA, reaction between the synthetic peptide (BSA-coupled coating antigen) and antibodies in human sera; type: binding; details: swine anti-human conjugate 1/100, plates read after 20 min, peptide coupled to BSA as coating antigen
alkaline phosphatase = test: Similar ELISA experiment where enzyme alone was used; type: binding; details: enzyme alone instead of conjugate
Description: That the synthesized peptide reacted with and bound to the respective conjugate was further shown by the ability of the conjugates alone to bind the peptide.

[5] = tested on: alkaline phosphatase goat anti-rabbit Ig conjugate; test: ELISA, reaction between the synthetic peptide and conjugate only (goat anti-rabbit); type: binding; details: no serum, plates read after 5 min
Description: (§1) The above synthesized peptide was coupled to a carrier, i.e. bovine serum albumin (BSA) in the following manner to form a peptide antigen (coating antigen) which was used in ELISA.
(§2) Fractions containing coupled material were pooled and the pooled material was used in ELISA as coating antigen and was added directly, without any previous dilution, to the microplate.
(§3) PERFORMANCE 1. Coating of microplates. Microplates were incubated with 0.1 ml of antigen in PBS at room temperature (20°-25° C.) over night.
(§4) 2. Incubation with bovine serum albumin (BSA) and serum. The plates were washed four times and then incubated with 0.1 ml of 1% (w/v) BSA in PBS at 37° C. for one hour. After washing, 0.1 ml of serum appropriately diluted in incubation buffer, was added to the wells and the plate(s) was incubated at room temperature for one hour.
(§5) 3. Incubation with conjugate. After washing, 0.1 ml of conjugate appropiately diluted in incubation buffer, was added to the wells and the plate(s) was incubated at room temperature for two hours.
(§6) 4. After washing, 0.1 ml of the enzyme substrate solution was added to the wells. The plates were kept at room temperature and the absorbance at 405 nm was read after the time indicated below. […]
(§7) The plates were read at times indicated below in an automated ELISA-reader (Titertek, Multiscan). […]

[6] = tested on: alkaline phosphatase swine anti-human IgG conjugate; test: ELISA, reaction between the synthetic peptide and conjugate only (swine anti-human); type: binding; details: no serum, plates read after 13 min
Description: as §1, §2, §3, §4, §5, §6, §7

## CC(C)[C@H](NC(=O)[C@H](CO)NC(=O)[C@H](CCCNC(=N)N)NC(=O)[C@H](CCCNC(=N)N)NC(=O)[C@H](CO)NC(=O)[C@@H](NC(=O)[C@H](Cc1ccc(O)cc1)NC(=O)[C@@H]1CCCN1C(=O)[C@H](CC(N)=O)NC(=O)[C@@H]1CCCN1C(=O)[C@H](CC(N)=O)NC(=O)[C@H](C)NC(=O)[C@H](CCCNC(=N)N)NC(=O)[C@@H](NC(=O)[C@H](CCC(N)=O)NC(=O)[C@@H](N)CCCCN)[C@@H](C)O)[C@@H](C)O)C(=O)N[C@@H](C)C(=O)N[C@@H](CO)C(=O)O [The synthetic peptide, H--Lys--Gln--Thr--Arg--Ala--Asn--Pro--Asn--Pro--Tyr--Thr----Ser--Arg--Arg--Ser--Val--Ala--Ser--OH] (H-KQTRANPNPYTSRRSVAS-OH)
Purified pertussis toxin [1]; immunized mice with endpoint titre 80-40960 (17 mice)
  Days of survival (mean): 3.765 days
Purified pertussis toxin [1]; immunized mice with endpoint titre 320-40960 (15 mice)
  Days of survival (mean): 4.000 days
Purified pertussis toxin [1]; immunized mice with endpoint titre 640-40960 (14 mice)
  Days of survival (mean): 3.929 days
Purified pertussis toxin [1]; immunized mice with endpoint titre 1280-40960 (10 mice)
  Days of survival (mean): 4.600 days
Purified pertussis toxin [1]; immunized mice with endpoint titre 2560-40960 (8 mice)
  Days of survival (mean): 4.875 days
Purified pertussis toxin [1]; immunized mice with endpoint titre 5120-40960 (6 mice)
  Days of survival (mean): 5.333 days
Purified pertussis toxin [1]; immunized mice with endpoint titre 10240-40960 (3 mice)
  Days of survival (mean): 6.333 days
Purified pertussis toxin [2]; endpoint titre against pertussis toxin, cut off absorbance 0.1, 17 mice
  Mean Titre: 2334
Purified pertussis toxin [2]; endpoint titre against pertussis toxin, cut off absorbance 0.1
  Titre Range: 320-40960
Purified pertussis toxin [2]; of 17 mice, s.c. 3×0.5 ml BSA-coupled peptide antigen on aluminium hydroxide, one month apart
  Responders: 15
[3]; 1 μg per well
  cpm (range of triplicates): 3000-4200 cpm
[3]; 10 μg per well
  cpm (range of triplicates): 7000-8500 cpm
[4]; serum Rabbit 1 diluted 1/500
  Absorbance at 405 nm: 1.21
[4]; serum Rabbit 2 diluted 1/500
  Absorbance at 405 nm: 1.05
Antibodies in human sera; serum Human 1 (one individual) diluted 1/500
  Absorbance at 405 nm: 1.11
Antibodies in human sera; serum Human 2 (pool of human sera) diluted 1/500
  Absorbance at 405 nm: 1.26
Alkaline phosphatase
  Binding of the peptide to alkaline phosphatase enzyme alone: no binding was observed
[5]
  Absorbance at 405 nm: 1.23
[6]
  Absorbance at 405 nm: 0.84

## Phytohaemagglutinin [PHA]
[3]; 2.5 μg per well
  cpm (range of triplicates): 6700-8100 cpm
[3]; 5 μg per well
  cpm (range of triplicates): 9800-10400 cpm
[3]; 7 μg per well
  cpm (range of triplicates): 7000-8100 cpm
